Series [1] is described as follows: Sterility and pyrogen status of the injectable product. Particulars: patient-ready product.
For the next series, the system named is cerebral blood flow. Particulars: areas of high flow rate; limitation of water extraction in the brain tissue; cited from earlier work.
Series [2] can be described thus: Toxic doses / physiological effects of the non-radioactive impurities. Particulars: quantity present in product, Table I.

As for `CCCC[15OH]` [^15 O labeled butanol], in series [1], the “sterility and pyrogen status” value is “sterile and pyrogen-free”.
For the compound `[15OH2]` [^15 O labeled water], the “cerebral blood flow measurement, deviation” value in the series on cerebral blood flow is listed as “underestimation of cerebral blood flow in areas of high flow rate”.
As to `OB(O)O` [boric acid], the “quantity in the product relative to quantities with observed physiological effects” value in series [2] is on record as “well below any quantity which has been observed to have any physiological effects”.
